The results in this text go back to US8263579B2, “Anti-inflammatory compounds” (Piramal Healthcare Limited, priority 2011, dated 2012).

One assay deals with TNF-α. Put plainly: High throughput screening in LPS stimulated THP-1 cells, TNF-α release by ELISA. The class given is cell-based. How it is done: (§1) The assay was designed on the basis of the reference, The Journal of Immunology, 1993, 151 (10), 5631-5638, the disclosure of which is incorporated by reference for the teaching of the assay.
(§2) THP-1 (ATCC, USA) cells were cultured in RPMI 1640 (Roswell Park Memorial Institute) culture medium (Gibco BRL, Pasley, UK) containing 100 U/ml penicillin, […] streptomycin (100× solution, Sigma Chemical Co. St Louis, Mo., USA) and 10% fetal bovine serum (Gibco BRL, Pasley, UK). The cells were differentiated into macrophages with phorbol myristate acetate (Sigma, USA) in 96 well culture plates. Following cell plating, various concentrations of the compound of formula I or the compound of formula II or vehicle (0.5% DMSO) were added to each well and the plate was incubated for 30 min at 37° C. Finally, per well, 20 μL of LPS (10 μg/mL stock solution) (Escherchia coli 0127:B8, Sigma Chemical Co., St. Louis, Mo.) was added for a final concentration of 1 μg/mL. Plates were incubated at 37° C. for 24 hours in an atmosphere of 5% CO2. Supernatants were harvested, and assayed for TNF-α and IL-6 by ELISA as described by the manufacturer (BD Biosciences). Percent inhibition of cytokine release compared to the control was calculated. The 50% inhibitory concentration (IC50) values were calculated by a nonlinear regression method.
(§3) Dexamethasone was used as standard.

Another assay deals with IL-6. Kind of assay: High throughput screening in LPS stimulated THP-1 cells, IL-6 release by ELISA. The format is cell-based. The procedure: as §1, §2, §3
Setting [1] is: Homo sapiens, LPS (1 μg/mL) stimulated THP-1 cells differentiated with PMA, 24 hours, ELISA.
The mark [2] stands for this setting: preparative HPLC fractions tested by method of Example 7.
The mark [3] stands for this setting: Homo sapiens, at 1 μg/ml, LPS stimulated THP-1 cells.

Consider `CCCCCCCCCCCCO/N=N/OC` [Compound of formula II], for which the IC50 in the assay on TNF-α (setting [1]) stood at 1.5 µg/mL; with IL-6 (setting [1]), 1.2 µg/mL. Besides, the “TNF-α inhibition of HPLC fractions (qualitative)” value with TNF-α (setting [2]) is “exhibited IL-6 and TNF-α inhibition”. For the same compound, the “IL-6 inhibition of HPLC fractions (qualitative)” value in the assay with IL-6 (setting [2]) was “exhibited IL-6 and TNF-α inhibition”.

Turning to `C[C@@H]1C[C@H]2[C@@H]3CCC4=CC(=O)C=C[C@]4(C)[C@@]3(F)[C@@H](O)C[C@]2(C)[C@@]1(O)C(=O)CO` [Dexamethasone, reference compound], the inhibition at 1 µg/mL with TNF-α (setting [3]) was found to be 73%; in the assay on IL-6 (setting [3]), 84%.

The term IC50 denotes the concentration needed to halve the response being measured. Low values mean inhibition by little substance, high ones a need for much substance. The inhibition is how much of the control response was suppressed.
